Results on 12 molecules are retold here after ChEMBL document CHEMBL1151865, “New developments for the design, synthesis and biological evaluation of potent SARS-CoV 3CL(pro) inhibitors” (Bioorg Med Chem Lett, 2009).

This experiment addresses Replicase polyprotein 1ab (Severe acute respiratory syndrome-related coronavirus, UniProt P0C6X7). The experiment in a line: Inhibition of SARS coronavirus 3CL protease pretreated for 10 mins before substrate addition.
Broadly, the Ki is the dissociation constant of the complex between target and ligand, obtained from inhibition or displacement. In the case of `CCCN(CCC)C(=O)CC[C@H](NC(=O)[C@H](CC(C)C)NC(=O)[C@@H](NC(=O)OCc1ccccc1)C(C)C)C(=O)C(F)(F)F`, the inhibition constant Ki worked out at 363 µM.
On to `CCN(CC)C(=O)CC[C@H](NC(=O)[C@@H](NC(=O)OCc1ccccc1)C(C)C)C(=O)c1nc2ccccc2s1`, for which the Ki is 159 µM.
As for `CC(C)C[C@H](NC(=O)[C@@H](NC(=O)OCc1ccccc1)C(C)C)C(=O)N[C@@H](CCC(=O)c1nccs1)C(=O)c1nccs1`, the figure is 45.2 µM.
For `CCN(CC)C(=O)CC[C@H](NC(=O)[C@@H](NC(=O)OCc1ccccc1)C(C)C)C(=O)c1nccs1` the value was 614 µM; for `CC(C)C[C@H](NC(=O)[C@@H](NC(=O)OCc1ccccc1)C(C)C)C(=O)N[C@@H](CCC(=O)N(C)Cc1ccccc1)C(=O)C(F)(F)F`, 34.1 µM.
As for `CCCN(CCC)C(=O)CC[C@H](NC(=O)[C@H](CC(C)C)NC(=O)[C@@H](NC(=O)[C@H](C)NC(=O)OCc1ccccc1)C(C)C)C(=O)C(F)(F)F`, the figure is 297 µM; as for `CC(C)C[C@H](NC(=O)[C@@H](NC(=O)OCc1ccccc1)C(C)C)C(=O)N[C@@H](CCC(=O)N1CCOCC1)C(=O)c1nccs1`, 478 µM.
`CCN(CC)C(=O)CC[C@H](NC(=O)[C@H](CC(C)C)NC(=O)[C@@H](NC(=O)OCc1ccccc1)C(C)C)C(=O)c1nc2ccccc2s1`: the Ki is 49.3 µM.
For `CCN(CC)C(=O)CC[C@H](NC(=O)[C@H](CC(C)C)NC(=O)OCc1ccccc1)C(=O)c1nccs1` the value was 462 µM.
As for `CC(C)C[C@H](NC(=O)[C@@H](NC(=O)OCc1ccccc1)C(C)C)C(=O)N[C@@H](CCC(=O)N1CCOCC1)C(=O)C(F)(F)F`, the figure is 21 µM.
In the case of `CCN(CC)C(=O)CC[C@H](NC(=O)[C@H](CC(C)C)NC(=O)[C@@H](NC(=O)OCc1ccccc1)C(C)C)C(=O)c1nccs1`, the inhibition constant (Ki) amounted to 112 µM.
For `CCCN(CCC)C(=O)CC[C@H](NC(=O)[C@H](CC(C)C)NC(=O)OCc1ccccc1)C(=O)C(F)(F)F` the value was 584 µM.
